{
  "source": "paper PMC6271077",
  "about": "“Synthesis, Anticancer and Antibacterial Activity of Salinomycin N-Benzyl Amides” (Molecules, 2014)",
  "key": {"S. aureus ATCC 25923": {"test_system": "S. aureus ATCC 25923", "assay": "Disc-diffusion (GIZ)", "type": "cell-based", "details": "18 h, 35 °C, un: unmeasurable", "excerpt": "(§1) Microorganisms used in this study were as follows: Gram-positive cocci: S. aureus NCTC 4163, S. aureus ATCC 25923, S. aureus ATCC 6538, S. aureus ATCC 29213, S. epidermidis ATCC 12228, S. epidermidis ATCC 35984, Gram-negative rods: E. coli ATCC 10538, E. coli ATCC 25922, E. coli NCTC 8196, P. vulgaris NCTC 4635, P. aeruginosa ATCC 15442, P. aeruginosa NCTC 6749, P. aeruginosa ATCC 27863, B. bronchiseptica ATCC 4617 and yeasts: C. albicans ATCC 10231, C. albicans ATCC 90028, C. parapsilosis ATCC 22019. The other microorganisms used were obtained from the collection of the Department of Pharmaceutical Microbiology, Medical University of Warsaw, Poland.\n(§2) Antibacterial activity was examined by the disc-diffusion method under standard conditions using Mueller-Hinton II agar medium (Becton Dickinson, Heidelberg, Germany) according to CLSI (previously NCCLS) guidelines. Antifungal activities were assessed using Muellere Hinton agar + 2% glucose and 0.5 mg/mL Methylene Blue Dye Medium.\n(§3) Sterile filter paper discs (9 mm diameter, Whatman No. 3 chromatography paper) were dripped with tested compound solutions (in EtOH) to load […] of a given compound per disc. Dry discs were placed on the surface of appropriate agar medium. The results (diameter of the growth inhibition zone, GIZ) were read after 18 h of incubation at 35 °C."}, "S. aureus ATCC 29213 [1]": {"test_system": "S. aureus ATCC 29213", "assay": "Disc-diffusion (GIZ)", "type": "cell-based", "details": "18 h, 35 °C, un: unmeasurable", "excerpt": "as §1, §2, §3"}, "S. aureus ATCC 4163 [2]": {"test_system": "S. aureus ATCC 4163", "assay": "Disc-diffusion (GIZ)", "type": "cell-based", "details": "18 h, 35 °C, un: unmeasurable", "excerpt": "as §1, §2, §3"}, "S. aureus ATCC 6538 [3]": {"test_system": "S. aureus ATCC 6538", "assay": "Disc-diffusion (GIZ)", "type": "cell-based", "details": "18 h, 35 °C, un: unmeasurable", "excerpt": "as §1, §2, §3"}, "[4]": {"test_system": "S. epidermidis ATCC 12228", "assay": "Disc-diffusion (GIZ)", "type": "cell-based", "details": "18 h, 35 °C, un: unmeasurable", "excerpt": "as §1, §2, §3"}, "[5]": {"test_system": "S. epidermidis ATCC 35984", "assay": "Disc-diffusion (GIZ)", "type": "cell-based", "details": "18 h, 35 °C, un: unmeasurable", "excerpt": "as §1, §2, §3"}, "S. aureus ATCC 4163 [6]": {"test_system": "S. aureus ATCC 4163", "assay": "MIC microdilution", "type": "cell-based", "details": "Staphylococcus aureus, ATCC4163; S. aureus ATCC 4163; 18 h, 35 °C; read-out: MIC"}, "S. aureus ATCC 6538 [7]": {"test_system": "S. aureus ATCC 6538", "assay": "MIC microdilution", "type": "cell-based", "details": "Staphylococcus aureus, ATCC6538; S. aureus ATCC 6538; 18 h, 35 °C; read-out: MIC"}, "S. aureus ATCC 29213 [8]": {"test_system": "S. aureus ATCC 29213", "assay": "MIC microdilution", "type": "cell-based", "details": "Staphylococcus aureus, ATCC29213; S. aureus ATCC 29213; 18 h, 35 °C; read-out: MIC"}, "[9]": {"test_system": "S. epidermidis ATCC 12228", "assay": "MIC microdilution", "type": "cell-based", "details": "Staphylococcus epidermidis, ATCC12228; S. epidermidis ATCC 12228; 18 h, 35 °C; read-out: MIC"}, "MRSA 452/11": {"test_system": "MRSA 452/11", "assay": "MIC microdilution, hospital MRSA", "type": "cell-based", "details": "Staphylococcus aureus; hospital MRSA strain 452/11; read-out: MIC"}, "MRSA 456/11": {"test_system": "MRSA 456/11", "assay": "MIC microdilution, hospital MRSA", "type": "cell-based", "details": "Staphylococcus aureus; hospital MRSA strain 456/11; read-out: MIC"}, "MRSA 462/11": {"test_system": "MRSA 462/11", "assay": "MIC microdilution, hospital MRSA", "type": "cell-based", "details": "Staphylococcus aureus; hospital MRSA strain 462/11; read-out: MIC"}, "MRSA 514/11": {"test_system": "MRSA 514/11", "assay": "MIC microdilution, hospital MRSA", "type": "cell-based", "details": "Staphylococcus aureus; hospital MRSA strain 514/11; read-out: MIC"}, "MRSA 522/12": {"test_system": "MRSA 522/12", "assay": "MIC microdilution, hospital MRSA", "type": "cell-based", "details": "Staphylococcus aureus; hospital MRSA strain 522/12; read-out: MIC"}, "MRSA 537/12": {"test_system": "MRSA 537/12", "assay": "MIC microdilution, hospital MRSA", "type": "cell-based", "details": "Staphylococcus aureus; hospital MRSA strain 537/12; read-out: MIC"}, "MRSA 572/12": {"test_system": "MRSA 572/12", "assay": "MIC microdilution, hospital MRSA", "type": "cell-based", "details": "Staphylococcus aureus; hospital MRSA strain 572/12; read-out: MIC"}, "MRSA 573/12": {"test_system": "MRSA 573/12", "assay": "MIC microdilution, hospital MRSA", "type": "cell-based", "details": "Staphylococcus aureus; hospital MRSA strain 573/12; read-out: MIC"}, "MRSA 585/12": {"test_system": "MRSA 585/12", "assay": "MIC microdilution, hospital MRSA", "type": "cell-based", "details": "Staphylococcus aureus; hospital MRSA strain 585/12; read-out: MIC"}, "MRSA 586/12": {"test_system": "MRSA 586/12", "assay": "MIC microdilution, hospital MRSA", "type": "cell-based", "details": "Staphylococcus aureus; hospital MRSA strain 586/12; read-out: MIC"}, "MRSE 459/11": {"test_system": "MRSE 459/11", "assay": "MIC microdilution, hospital MRSE", "type": "cell-based", "details": "Staphylococcus epidermidis; hospital MRSE strain 459/11; read-out: MIC"}, "MRSE 461/11": {"test_system": "MRSE 461/11", "assay": "MIC microdilution, hospital MRSE", "type": "cell-based", "details": "Staphylococcus epidermidis; hospital MRSE strain 461/11; read-out: MIC"}, "MRSE 466/11": {"test_system": "MRSE 466/11", "assay": "MIC microdilution, hospital MRSE", "type": "cell-based", "details": "Staphylococcus epidermidis; hospital MRSE strain 466/11; read-out: MIC"}, "MRSE 467/11": {"test_system": "MRSE 467/11", "assay": "MIC microdilution, hospital MRSE", "type": "cell-based", "details": "Staphylococcus epidermidis; hospital MRSE strain 467/11; read-out: MIC"}, "MRSE 468/11": {"test_system": "MRSE 468/11", "assay": "MIC microdilution, hospital MRSE", "type": "cell-based", "details": "Staphylococcus epidermidis; hospital MRSE strain 468/11; read-out: MIC"}, "MRSE 469/11": {"test_system": "MRSE 469/11", "assay": "MIC microdilution, hospital MRSE", "type": "cell-based", "details": "Staphylococcus epidermidis; hospital MRSE strain 469/11; read-out: MIC"}, "MRSE 488/11": {"test_system": "MRSE 488/11", "assay": "MIC microdilution, hospital MRSE", "type": "cell-based", "details": "Staphylococcus epidermidis; hospital MRSE strain 488/11; read-out: MIC"}, "MRSE 489/11": {"test_system": "MRSE 489/11", "assay": "MIC microdilution, hospital MRSE", "type": "cell-based", "details": "Staphylococcus epidermidis; hospital MRSE strain 489/11; read-out: MIC"}, "MRSA": {"test_system": "MRSA", "assay": "MIC microdilution, MRSA strains overall (range given)", "type": "cell-based, Staphylococcus aureus", "details": "hospital MRSA strains"}},
  "data": [
    {"molecule": "O=C(O)c1cn(C2CC2)c2cc(N3CCNCC3)c(F)cc2c1=O", "note": "[ciprofloxacin, reference compound]", "values": [
      {"measurement": "GIZ", "setting": "S. aureus ATCC 25923", "result": 26, "unit": "mm"},
      {"measurement": "GIZ", "setting": "S. aureus ATCC 29213 [1]", "result": 22, "unit": "mm"},
      {"measurement": "GIZ", "setting": "S. aureus ATCC 4163 [2]", "result": 26, "unit": "mm"},
      {"measurement": "GIZ", "setting": "S. aureus ATCC 6538 [3]", "result": 28, "unit": "mm"},
      {"measurement": "GIZ", "setting": "[4]", "result": 30, "unit": "mm"},
      {"measurement": "GIZ", "setting": "[5]", "result": 32, "unit": "mm"},
      {"measurement": "MIC", "setting": "S. aureus ATCC 4163 [6]", "result": 0.25, "unit": "µg/mL"},
      {"measurement": "MIC", "setting": "S. aureus ATCC 6538 [7]", "result": 0.25, "unit": "µg/mL"},
      {"measurement": "MIC", "setting": "S. aureus ATCC 29213 [8]", "result": 0.5, "unit": "µg/mL"},
      {"measurement": "MIC", "setting": "[9]", "result": 0.25, "unit": "µg/mL"},
      {"measurement": "MIC", "setting": "MRSA 452/11", "result": 32, "unit": "µg/mL"},
      {"measurement": "MIC", "setting": "MRSA 456/11", "result": 32, "unit": "µg/mL"},
      {"measurement": "MIC", "setting": "MRSA 462/11", "result": 64, "unit": "µg/mL"},
      {"measurement": "MIC", "setting": "MRSA 514/11", "result": 32, "unit": "µg/mL"},
      {"measurement": "MIC", "setting": "MRSA 522/12", "result": 32, "unit": "µg/mL"},
      {"measurement": "MIC", "setting": "MRSA 537/12", "result": 64, "unit": "µg/mL"},
      {"measurement": "MIC", "setting": "MRSA 572/12", "result": 64, "unit": "µg/mL"},
      {"measurement": "MIC", "setting": "MRSA 573/12", "result": 32, "unit": "µg/mL"},
      {"measurement": "MIC", "setting": "MRSA 585/12", "result": 64, "unit": "µg/mL"},
      {"measurement": "MIC", "setting": "MRSA 586/12", "result": 64, "unit": "µg/mL"},
      {"measurement": "MIC", "setting": "MRSE 459/11", "result": 16, "unit": "µg/mL"},
      {"measurement": "MIC", "setting": "MRSE 461/11", "result": 0.25, "unit": "µg/mL"},
      {"measurement": "MIC", "setting": "MRSE 466/11", "result": 2, "unit": "µg/mL"},
      {"measurement": "MIC", "setting": "MRSE 467/11", "result": 16, "unit": "µg/mL"},
      {"measurement": "MIC", "setting": "MRSE 468/11", "result": 16, "unit": "µg/mL"},
      {"measurement": "MIC", "setting": "MRSE 469/11", "result": 8, "unit": "µg/mL"},
      {"measurement": "MIC", "setting": "MRSE 488/11", "result": 16, "unit": "µg/mL"},
      {"measurement": "MIC", "setting": "MRSE 489/11", "result": 0.25, "unit": "µg/mL"},
      {"measurement": "MIC (range over MRSA strains)", "setting": "MRSA", "result": "32 to 64", "unit": "µg/mL"}
    ]}
  ]
}
